This is an account of results in patent US20230151432A1, “KIF18A INHIBITORS FOR TREATMENT OF NEOPLASTIC DISEASES” (AMGEN INC., priority 2020, published 2023).

The test system of one test is CAL-51 tumors. The experiment in a line: CAL-51 Tumor Xenograft Efficacy Study (IP). The class given is in vivo, mouse. The note with it: 100 mg/kg IP once daily for 18 consecutive days. The method, then:
Tumor volume and body weight assessment performed as described above. After the final dose on day 36, plasma pharmacokinetic analysis was performed as described above. All data analysis was performed as described above.

Test [1] deals with OVCAR-8 NCI/ADR-RES cells. Briefly: Nuclear count assay in multidrug resistant cells, with or without P-gp inhibitor. It counts as cell-based, human. Particulars: OVCAR-8 NCI-ADR RES subline, Count POC (FIG. 3E). How it is done:
Compound was added to the cells with a final volume of 200 μL in complete media containing 0.5% DMSO.
The plates were sealed and incubated for 1 hour at room temperature in the dark. Cells were stored at 4° C. in the dark until data acquisition. […] The Total Valid Object Count was represented as a Count POC (Percentage of DMSO Control) using the following formula:
Briefly, OVCAR-8 cells were seeded in duplicate in a Corning 96-well Flat Clear Bottom Black Polystyrene plates (Corning, N.Y.) in 100 μL of appropriate complete media at the appropriate density and grown for 24 hours. […] After 4 days (96 hours) of treatment, the cells were fixed by removing 100 μL of complete media from each well and replacing it with 100 μL of 2×formaldehyde (final 4%) and incubating the plates for 15 minutes at room temperature. […] The plates were sealed and incubated for 1 hour at room temperature in the dark. Cells were stored at 4° C. in the dark until data acquisition. […] The Total Valid Object Count was represented as a Count POC (Percentage of DMSO Control) using the following formula:
Count POC=(Total Valid Object Count in treated well)[…](Total Valid Object Count in DMSO treated wells)×100
Compound concentration and Count POC values were plotted using GraphPad Prism software (V7.0.4) and curve-fitting was performed with 4-parameter equation (variable slope). The concentration-response curves and standard deviation represent two independent experiments run in duplicate.

Test [2] deals with human OVCAR-3 HGSOC xenograft model (TP53MUT, CCNE1AMP). The experiment in a line: OVCAR-3 xenograft efficacy study, oral dosing (Example 3). The class given is in vivo, mouse. The note with it: for tumor regression: day 25 to day 45. The method, then: Female athymic nude mice were injected with 5×10^6 cells in 0.1 mL subcutaneously in the right flank. After tumors were established (average tumor volume of 150 mm^3), animals were randomized into 4 treatment groups (vehicle alone, KIF18A inhibitor at 10, 30, or 100 mg/kg) with 10 animals per group and treated orally once per day (PO, QD) starting on day 25 post-tumor implantation. Tumor measurement was calculated from the length, width and height of tumors measured with a PRO-MAX electronic digital caliper (Japan Micrometer Mfg. Co. LTD). The tumor volume was calculated as [L×W×H] and expressed in mm^3. Tumor volume and animal body weight measurements were determined twice per week (study start day 25, study end day 45). A single mouse was removed from the study (KIF18A inhibitor 30 mg/kg group) due to abdominal distention, a finding likely unrelated to compound.
Tumor Growth Inhibition (TGI) and Tumor Regression formulas.
Data was plotted using GraphPad Prism software (V7.0.4), tumor volume and body weight data are expressed as means plus or minus standard error of the mean and plotted as a function of time. Statistical significance of observed differences between growth curves were calculated using SLACR package (v.1.0.3). Statistical significance for tumor regressions were performed by paired Student's t-Test on the initial and final tumor volumes with significant tumor regression p-values (***p≤0.0001) for all three KIF18A inhibitor treatment groups. KIF18A inhibitor dose 10 mg/kg (81% regression, 5 of 10 tumor-free), 30 mg/kg (98% regression, 8 of 9 tumor-free), and 100 mg/kg (97% regression, 7 of 10 tumor-free).

A further test has as its system OVCAR-3 HGSOC cells. Briefly: Time course Western blot of cell cycle and apoptosis proteins. It counts as cell-based, human. The note with it: 0.5 μM; release from double thymidine block, 4-24 hours. How it is done:
OVCAR-3 HGSOC cells were seeded at a density of 1.4 million cells into 100 mm tissue culture plates in 10 mL of complete growth media. The next day, complete growth media containing 2 mM thymidine was added to the cells and incubated for 16 hours. Cells were washed thrice in 1×PBS before adding complete growth media for 8 hours, followed by and second 2 mM thymidine block for 16 hours. The double thymidine block arrested cells in G1/S phase of the cell cycle. Cells were release from G1/S block by first washing thrice in 1×PBS before adding complete growth media with DMSO or KIF18A inhibitor (Compound C11 at 0.5 μM). Cell lysates were prepared at multiple time points (4, 8, 10, 12, 14, and 24 hours). As controls, asynchronous growing OVCAR-3 cells were treated DMSO or KIF18A inhibitor (Compound C11 at 0.5 μM) and lysates were prepared at 24 hours. Primary antibodies included mouse anti-cleaved-PARP (cl-PARP) (51-900017, BD Pharmingen, 1:500), mouse anti-cyclin B1 (554179, BD Pharmingen, 1:500), rabbit anti-Mcl-1 (5453, Cell Signaling, 1:500), mouse anti-Cyclin E1 (MS-870-P, HE12, NeoMarkers, 1:2000), mouse anti-BubR1 (612503, BD Pharmingen, 1:5000), and rabbit anti-KIF18A (HPA039484, Simga, 1:2000), and mouse anti-β-actin (A5441, Simga, 1:5000).
For orientation: In western blotting, separated proteins are transferred to a membrane and probed.

The target of test [3] is T1, Recombinant human KIF18A (1-467 His-tagged) protein (Homo sapiens, UniProt Q8NI77).
T1 construct: Recombinant human KIF18A (1-467 His-tagged) protein; His; made in house
The experiment in a line: KIF18A Enzyme Assay (microtubule-stimulated ATPase activity, ADP-Glo). The class given is biochemical. Particulars: 30 nM KIF18A, 75 μM ATP. The method, then:
KIF18A Enzyme Assay: Microtubule-stimulated ATPase activity assay was used to measure KIF18A enzyme activity after treatment with compound. Compounds were 2-fold serially diluted in DMSO (Sigma Inc) over 22-point concentration range. […] The assay measures ADP formed from the ATPase reaction.
Concentration-response curve-fitting and IC50 determination was performed using Genedata Screener Software (Standard 15.0.1, Genedata Inc) with a four-parameter logistic regression fit model.
Background: In ADP-Glo the light output rises with the ADP produced.

T1 sequence (Q8NI77 1-467): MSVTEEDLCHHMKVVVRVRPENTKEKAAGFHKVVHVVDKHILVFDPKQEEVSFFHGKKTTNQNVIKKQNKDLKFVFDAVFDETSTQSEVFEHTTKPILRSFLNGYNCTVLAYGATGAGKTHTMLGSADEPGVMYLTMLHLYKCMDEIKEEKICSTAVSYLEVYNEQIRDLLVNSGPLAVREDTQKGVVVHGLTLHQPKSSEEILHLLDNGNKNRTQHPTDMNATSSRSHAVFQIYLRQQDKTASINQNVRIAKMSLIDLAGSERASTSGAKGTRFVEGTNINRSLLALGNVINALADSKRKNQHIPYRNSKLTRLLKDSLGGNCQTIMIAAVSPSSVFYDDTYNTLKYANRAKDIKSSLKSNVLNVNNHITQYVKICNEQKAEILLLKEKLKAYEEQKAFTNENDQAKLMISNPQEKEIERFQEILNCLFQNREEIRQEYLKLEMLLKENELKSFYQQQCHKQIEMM
T1 sequence (P02550 whole entry partner): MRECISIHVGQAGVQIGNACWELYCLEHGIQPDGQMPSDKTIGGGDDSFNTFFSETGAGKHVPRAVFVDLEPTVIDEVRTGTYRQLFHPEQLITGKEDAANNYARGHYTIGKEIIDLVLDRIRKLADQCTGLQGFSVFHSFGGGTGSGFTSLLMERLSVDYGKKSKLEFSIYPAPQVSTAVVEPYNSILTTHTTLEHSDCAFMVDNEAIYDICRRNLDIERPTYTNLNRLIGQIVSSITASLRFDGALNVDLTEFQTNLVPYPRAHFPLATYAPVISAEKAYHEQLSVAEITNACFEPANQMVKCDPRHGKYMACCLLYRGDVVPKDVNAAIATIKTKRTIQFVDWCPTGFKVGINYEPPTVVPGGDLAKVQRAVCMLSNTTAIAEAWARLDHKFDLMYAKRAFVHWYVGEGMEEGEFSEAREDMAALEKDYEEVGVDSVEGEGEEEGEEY
T1 sequence (P02554 whole entry partner): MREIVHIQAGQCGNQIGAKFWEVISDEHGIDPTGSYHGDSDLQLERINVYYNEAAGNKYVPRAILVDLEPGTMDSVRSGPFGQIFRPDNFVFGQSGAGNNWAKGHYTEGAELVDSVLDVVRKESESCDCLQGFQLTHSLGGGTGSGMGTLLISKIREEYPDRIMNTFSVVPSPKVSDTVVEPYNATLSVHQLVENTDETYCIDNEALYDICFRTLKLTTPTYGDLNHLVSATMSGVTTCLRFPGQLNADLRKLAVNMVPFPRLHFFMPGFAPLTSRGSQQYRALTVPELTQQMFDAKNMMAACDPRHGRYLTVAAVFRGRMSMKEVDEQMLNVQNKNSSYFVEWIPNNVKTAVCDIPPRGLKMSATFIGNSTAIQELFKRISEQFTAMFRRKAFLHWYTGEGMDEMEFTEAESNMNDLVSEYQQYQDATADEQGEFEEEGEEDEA

In the case of `CC(C)(C)NS(=O)(=O)c1cccc(NC(=O)c2ccc(S(=O)(=O)NC(C)(C)C)cc2N2CCC3(CC2)CC3)c1` [Compound C9, 4-(N-(tert-butyl)sulfamoyl)-N-(3-(N-(tert-butyl)sulfamoyl)phenyl)-2-(6-azaspiro[2.5]octan-6-yl)benzamide], in the test with CAL-51 tumors, the “effect on tumor growth relative to vehicle control” value is given as “no observable effect”.
As to `Cc1cc(NC(=O)c2ccc(NS(=O)(=O)CCO)cc2N2CCC3(CC2)CC3)nc(N2CCC(F)(F)CC2)n1` [Compound C14, N-(2-(4,4-Difluoropiperidin-1-yl)-6-methylpyrimidin-4-yl)-4-((2-hydroxyethyl)sulfonamido)-2-(6-azaspiro[2.5]octan-6-yl)benzamide], the “sensitivity of the cell line compared with PARP inhibitor, paclitaxel, doxorubicin, carboplatin” value in test [1] is recorded as “greatest sensitivity”. Further, the tumor-free animals in test [2] (10 mg/kg PO QD) is 5 of 10; in test [2] (30 mg/kg PO QD) it was 8 of 9; in test [2] (100 mg/kg PO QD), 7 of 10. The tumor regression in test [2] (10 mg/kg PO QD) is listed as 81%; in test [2] (30 mg/kg PO QD) it was 98%; in test [2] (100 mg/kg PO QD) it was 97%. Moreover, the “durable tumor regressions and cures, share of the animals” value in test [2] (tumor re-growth assessment after cessation of treatment) is at least 50%.
As usually defined, the IC50 is the point on the concentration scale where inhibition reaches its midpoint. For `CC(C)(CO)Nc1ccc(C(=O)Nc2cccc(S(=O)(=O)C3CCCC3)c2)c(N2CCC3(CC2)CC3)n1` [Compound C11, N-(3-(cyclopentylsulfonyl)phenyl)-6-((1-hydroxy-2-methylpropan-2-yl)amino)-2-(6-azaspiro[2.5]octan-6-yl)nicotinamide], in the test on OVCAR-3 HGSOC cells, the “KIF18A and BubR1 protein levels” value was “increase in KIF18A and BubR1 protein levels”; the “cyclin B1, cl-PARP, Mcl-1 and cyclin E1 protein levels” value was “increase in cyclin B1 and cl-PARP protein levels and a decrease in Mcl-1 and cyclin E1 levels”. The IC50 in test [3] was 41 nM.
